In brackets after ≈: the same amount, converted by molar mass.
Tests used:
[1] = target: Adenosine receptor A1 (Homo sapiens) (UniProt P30542); conditions: CHO, 10 uM
IMR-32 = test: Displacement of [I125]Epibatidine from nAChR in human IMR32 cells at 10 uM after 60 mins relative to control; type: cell-based
[2] = target: B2 bradykinin receptor (Homo sapiens) (UniProt P30411); conditions: CHEM1, 10 uM
[3] = target: T1, Glutamate NMDA receptor (Rattus norvegicus) (UniProt P35439+Q00959+Q00960+Q00961+Q62645+Q8VHN2+Q9R1M7); conditions: Wistar, Cerebral cortex, 10 uM
Rattus norvegicus [4] = species: Rattus norvegicus; test: Displacement of [3H]Kainic acid from kainate receptor in Wistar rat brain at 10 uM after 60 mins relative to control
[5] = Metabolic stability in human plasma after 5 hrs; type: ADME, cell-free; conditions: read-out: Stability
[6] = Cytotoxicity against human CSC-like HMLE cells expressing shRNA and epithelial cadherin after 70 to 74 hrs by Cell Titer Glo assay; type: functional, cell-based
[7] = Cytotoxicity against human HMLE cells expressing shRNA and GFP after 70 to 74 hrs by Cell Titer Glo assay; type: cell-based
[8] = Chemical stability of the compound after 48 hrs in presence of GSH; type: physicochemical; conditions: read-out: Stability
[9] = Chemical stability in DMSO after 48 hrs; type: physicochemical; conditions: read-out: Stability
[10] = Chemical stability of the compound in PBS after 48 hrs at pH 7.4 by UPLC/MS analysis; type: physicochemical; conditions: read-out: Stability
[11] = Solubility in PBS at 100 uM after 24 hrs at pH 7.4 by UPLC-MS analysis; type: physicochemical
[12] = Selectivity ratio of EC50 for human HMLE cells expressing shRNA and GFP to EC50 for human CSC-like HMLE cells expressing shRNA and epithelial cadherin; type: ADME, cell-based; conditions: read-out: Ratio EC50
[13] = Plasma protein binding in human; type: ADME, cell-free; conditions: read-out: PPB (converted)
Rattus norvegicus [14] = species: Rattus norvegicus; test: Displacement of [3H]Nitrendipine from L-type calcium channel dihydropyridine binding site in Wistar rat cerebral cortex at 10 uM after 90 mins relative to control; type: tissue-based
[15] = Displacement of [3H]Nitrendipine from L-type calcium channel dihydropyridine binding site in Wistar rat cerebral cortex after 90 mins; type: tissue-based
[16] = target: Histamine H2 receptor (Homo sapiens) (UniProt P25021); test: Displacement of [125I]Aminopotentidine from human recombinant histamine H2 receptor expressed in CHOK1 cells at 10 uM after 2 hrs relative to control; type: cell-based; conditions: CHO-K1
Chain of Histamine H2 receptor (Homo sapiens) (P25021 whole entry): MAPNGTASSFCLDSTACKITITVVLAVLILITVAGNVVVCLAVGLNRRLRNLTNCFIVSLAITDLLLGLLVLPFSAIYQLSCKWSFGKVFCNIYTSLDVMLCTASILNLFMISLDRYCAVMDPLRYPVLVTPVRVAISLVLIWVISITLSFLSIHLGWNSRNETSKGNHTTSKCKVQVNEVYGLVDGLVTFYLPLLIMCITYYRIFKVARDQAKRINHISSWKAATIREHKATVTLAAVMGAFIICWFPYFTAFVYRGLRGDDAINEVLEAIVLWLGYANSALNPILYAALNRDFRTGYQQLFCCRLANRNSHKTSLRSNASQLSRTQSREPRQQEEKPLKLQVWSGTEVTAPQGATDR

[17] = target: Platelet-activating factor receptor (Homo sapiens) (UniProt P25105); test: Displacement of [3H]PAF from platelet activating factor receptor in human platelets at 10 uM after 3 hrs relative to control
Rattus norvegicus [18] = species: Rattus norvegicus; test: Displacement of [3H]Idazoxan from central-type imidazole receptor 2 imidazoline binding site in Wistar rat cerebral cortex at 10 uM after 30 mins relative to control; type: tissue-based
[19] = Displacement of [3H]Idazoxan from central-type imidazole receptor 2 imidazoline binding site in Wistar rat cerebral cortex after 30 mins; type: tissue-based
[20] = target: Delta-type opioid receptor (Homo sapiens) (UniProt P41143); conditions: HEK293, 10 uM
[21] = target: T1, Glutamate NMDA receptor (Rattus norvegicus); conditions: Wistar, Cerebral cortex, 10 uM; remark: listed apart in the source
[22] = target: Gamma-aminobutyric acid type B receptor subunit 1 (Homo sapiens) (UniProt Q9UBS5); test: Displacement of [3H]CGP54626 from human recombinant GABAB1A receptor expressed in CHO cells at 10 uM after 3 hrs relative to control; type: cell-based
[23] = target: Histamine H3 receptor (Homo sapiens) (UniProt Q9Y5N1); conditions: CHO-K1, 10 uM
Rattus norvegicus [24] = species: Rattus norvegicus; test: Displacement of [3H]Rolipram from rolipram binding site in Wistar rat brain at 10 uM after 60 mins relative to control
Mus musculus = species: Mus musculus; test: Displacement of [3H]PDBu from phorbol ester receptor in ICR mouse brain at 10 uM after 60 mins relative to control
[25] = Displacement of [3H]PDBu from phorbol ester receptor in ICR mouse brain after 60 mins
[26] = target: T1, Glutamate NMDA receptor (Rattus norvegicus); test: Displacement of [3H]MDL105519 from NMDA receptor glycine binding site in Wistar rat cerebral cortex at 10 uM after 30 mins relative to control; type: tissue-based
Glutamate NMDA receptor = test: Displacement of [3H]MDL105519 from NMDA receptor glycine binding site in Wistar rat cerebral cortex after 30 mins; type: tissue-based
[27] = target: D(4) dopamine receptor (Homo sapiens) (UniProt P21917); conditions: CHO-K1, 10 uM
Chain of D(4) dopamine receptor (Homo sapiens) (P21917 whole entry): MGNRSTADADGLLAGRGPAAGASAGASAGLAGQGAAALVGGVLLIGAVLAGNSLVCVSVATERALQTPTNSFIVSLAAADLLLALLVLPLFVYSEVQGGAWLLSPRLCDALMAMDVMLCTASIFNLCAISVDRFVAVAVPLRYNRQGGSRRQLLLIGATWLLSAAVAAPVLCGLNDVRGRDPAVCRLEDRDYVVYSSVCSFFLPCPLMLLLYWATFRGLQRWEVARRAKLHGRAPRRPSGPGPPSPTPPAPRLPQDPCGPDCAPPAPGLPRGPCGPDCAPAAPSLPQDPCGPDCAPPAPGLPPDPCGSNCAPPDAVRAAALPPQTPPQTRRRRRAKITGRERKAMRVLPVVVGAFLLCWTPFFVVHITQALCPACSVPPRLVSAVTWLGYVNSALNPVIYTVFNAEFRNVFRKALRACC

[28] = target: D(2) dopamine receptor (Homo sapiens) (UniProt P14416); conditions: CHO, 10 uM
Chain of D(2) dopamine receptor (Homo sapiens) (P14416 whole entry): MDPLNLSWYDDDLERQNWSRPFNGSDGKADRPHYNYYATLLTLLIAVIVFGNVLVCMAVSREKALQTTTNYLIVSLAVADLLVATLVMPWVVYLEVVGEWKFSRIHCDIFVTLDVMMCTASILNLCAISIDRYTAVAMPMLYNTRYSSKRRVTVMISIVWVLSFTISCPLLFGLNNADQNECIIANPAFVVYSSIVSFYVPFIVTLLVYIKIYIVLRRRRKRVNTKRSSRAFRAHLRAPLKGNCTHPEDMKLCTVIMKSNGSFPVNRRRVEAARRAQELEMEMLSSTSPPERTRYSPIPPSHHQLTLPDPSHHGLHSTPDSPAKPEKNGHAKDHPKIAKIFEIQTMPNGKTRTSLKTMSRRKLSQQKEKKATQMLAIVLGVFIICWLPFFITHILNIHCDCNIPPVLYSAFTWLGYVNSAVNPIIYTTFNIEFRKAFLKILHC

CHO-K1 = test: Displacement of [125I]2-iodomelatonin from human recombinant melatonin receptor 1 expressed in CHOK1 cells at 10 uM after 3 hrs relative to control; type: cell-based
[29] = target: B1 bradykinin receptor (Homo sapiens) (UniProt P46663); test: Displacement of [3H](Des-Arg10)-Kallidin from bradykinin B1 receptor in human IMR90 cells at 10 uM after 60 mins relative to control; type: cell-based; conditions: IMR-90
Chain of B1 bradykinin receptor (Homo sapiens) (P46663 whole entry): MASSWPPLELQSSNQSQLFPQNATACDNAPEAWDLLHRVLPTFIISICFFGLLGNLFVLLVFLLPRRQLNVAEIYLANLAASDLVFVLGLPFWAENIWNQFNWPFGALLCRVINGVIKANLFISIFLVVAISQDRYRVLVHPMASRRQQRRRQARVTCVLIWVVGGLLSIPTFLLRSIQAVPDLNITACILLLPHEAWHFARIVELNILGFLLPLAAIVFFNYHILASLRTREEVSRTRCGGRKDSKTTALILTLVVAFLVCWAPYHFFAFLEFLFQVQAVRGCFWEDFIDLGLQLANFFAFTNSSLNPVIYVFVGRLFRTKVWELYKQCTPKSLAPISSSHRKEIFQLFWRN

[30] = target: Neuropeptide Y receptor type 2 (Homo sapiens, UniProt P49146); test: Displacement of [125I]Peptide YY from neuropeptide Y receptor type 2 in human KAN-TS cells after 2 hrs; type: cell-based
Chain of Neuropeptide Y receptor type 2 (P49146 whole entry): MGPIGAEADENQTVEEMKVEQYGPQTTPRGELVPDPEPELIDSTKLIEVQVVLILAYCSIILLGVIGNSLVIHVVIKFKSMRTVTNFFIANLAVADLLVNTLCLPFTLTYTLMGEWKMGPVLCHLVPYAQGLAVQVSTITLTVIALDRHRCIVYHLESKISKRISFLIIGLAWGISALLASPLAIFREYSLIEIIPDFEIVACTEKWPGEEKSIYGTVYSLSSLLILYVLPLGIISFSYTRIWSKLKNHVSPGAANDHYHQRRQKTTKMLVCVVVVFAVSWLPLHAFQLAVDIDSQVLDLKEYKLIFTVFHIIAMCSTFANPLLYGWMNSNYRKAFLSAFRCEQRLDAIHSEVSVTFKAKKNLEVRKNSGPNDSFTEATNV

[31] = target: Neuropeptide Y receptor type 2 (Homo sapiens) (UniProt P49146); test: Displacement of [125I]Peptide-YY from neuropeptide Y receptor type 2 in human KAN-TS cells at 10 uM after 2 hrs relative to control; type: cell-based
Chain of Neuropeptide Y receptor type 2 (Homo sapiens) (P49146 whole entry): as above

[32] = target: Adenosine receptor A3 (Homo sapiens) (UniProt P0DMS8); conditions: CHO-K1, 10 uM
[33] = target: Cysteinyl leukotriene receptor 1 (Homo sapiens) (UniProt Q9Y271); conditions: CHO-K1, 10 uM
[34] = target: Mu-type opioid receptor (Homo sapiens) (UniProt P35372); conditions: CHO-K1, 10 uM
Chain of Mu-type opioid receptor (Homo sapiens) (P35372 whole entry): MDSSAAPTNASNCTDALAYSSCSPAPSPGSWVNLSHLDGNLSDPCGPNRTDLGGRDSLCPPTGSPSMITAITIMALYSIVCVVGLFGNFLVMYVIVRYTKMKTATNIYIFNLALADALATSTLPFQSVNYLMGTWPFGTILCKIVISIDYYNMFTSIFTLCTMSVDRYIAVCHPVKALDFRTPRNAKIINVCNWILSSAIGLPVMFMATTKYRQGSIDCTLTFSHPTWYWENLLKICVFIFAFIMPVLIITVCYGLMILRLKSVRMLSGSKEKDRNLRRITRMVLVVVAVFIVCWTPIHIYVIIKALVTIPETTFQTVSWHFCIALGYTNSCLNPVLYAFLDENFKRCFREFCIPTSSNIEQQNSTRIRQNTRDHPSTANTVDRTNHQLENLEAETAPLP

HIT-T15 = test: Displacement of [3H]Glyburide from ATP-sensitive potassium channel in hamster pancreatic HIT-T15 cells at 10 uM after 2 hrs relative to control; type: cell-based; conditions: Mesocricetus auratus
[35] = Displacement of [3H]Glyburide from ATP-sensitive potassium channel in hamster pancreatic HIT-T15 cells after 2 hrs; type: cell-based, Mesocricetus auratus
[36] = Displacement of [3H]alpha, beta-methylene-ATP from purinergic P2X receptor in New Zealand albino rabbit urinary bladder after 30 mins; design: species or system Oryctolagus cuniculus
Oryctolagus cuniculus = species: Oryctolagus cuniculus; test: Displacement of [3H]alpha, beta-methylene-ATP from purinergic P2X receptor in New Zealand albino rabbit urinary bladder at 10 uM after 30 mins relative to control
Rattus norvegicus [37] = species: Rattus norvegicus; test: Displacement of [125I]omega-Conotoxin GVIA from N-type calcium channel in Wistar rat frontal brain at 10 uM after 30 mins relative to control
[38] = Displacement of [125I]omega-Conotoxin GVIA from N-type calcium channel in Wistar rat frontal brain after 30 mins
[39] = target: Muscarinic acetylcholine receptor M2 (Homo sapiens) (UniProt P08172); conditions: CHO-K1, 10 uM
Chain of Muscarinic acetylcholine receptor M2 (Homo sapiens) (P08172 whole entry): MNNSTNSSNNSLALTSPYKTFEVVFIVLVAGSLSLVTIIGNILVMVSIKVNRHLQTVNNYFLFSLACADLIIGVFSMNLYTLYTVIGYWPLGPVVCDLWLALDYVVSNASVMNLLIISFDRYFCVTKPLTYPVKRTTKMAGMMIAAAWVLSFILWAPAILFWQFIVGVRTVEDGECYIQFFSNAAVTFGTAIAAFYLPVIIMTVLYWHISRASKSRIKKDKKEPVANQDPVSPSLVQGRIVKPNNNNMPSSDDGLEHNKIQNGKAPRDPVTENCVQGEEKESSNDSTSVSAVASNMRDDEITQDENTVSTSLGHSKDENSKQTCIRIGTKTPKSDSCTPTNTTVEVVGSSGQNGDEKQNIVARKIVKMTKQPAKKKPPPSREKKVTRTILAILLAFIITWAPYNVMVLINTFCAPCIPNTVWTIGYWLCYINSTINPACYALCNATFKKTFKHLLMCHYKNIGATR

[40] = target: Muscarinic acetylcholine receptor M3 (Homo sapiens) (UniProt P20309); conditions: CHO-K1, 10 uM
Chain of Muscarinic acetylcholine receptor M3 (Homo sapiens) (P20309 whole entry, looked up): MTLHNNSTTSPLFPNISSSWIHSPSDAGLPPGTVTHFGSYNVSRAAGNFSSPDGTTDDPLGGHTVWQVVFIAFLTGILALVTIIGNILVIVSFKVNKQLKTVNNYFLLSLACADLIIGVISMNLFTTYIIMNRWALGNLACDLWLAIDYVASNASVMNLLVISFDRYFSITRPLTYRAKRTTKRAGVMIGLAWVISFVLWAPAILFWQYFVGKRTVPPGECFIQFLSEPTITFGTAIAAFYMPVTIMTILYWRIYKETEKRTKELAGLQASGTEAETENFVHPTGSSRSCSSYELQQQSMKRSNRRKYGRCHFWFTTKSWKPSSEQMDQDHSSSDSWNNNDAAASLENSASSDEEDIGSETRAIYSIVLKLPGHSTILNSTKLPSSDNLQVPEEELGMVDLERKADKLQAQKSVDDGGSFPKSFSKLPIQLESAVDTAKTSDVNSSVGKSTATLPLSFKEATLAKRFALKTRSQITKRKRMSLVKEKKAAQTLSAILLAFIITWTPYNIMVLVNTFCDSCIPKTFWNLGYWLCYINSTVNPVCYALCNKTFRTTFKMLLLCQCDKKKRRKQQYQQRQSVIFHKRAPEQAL

[41] = target: Muscarinic acetylcholine receptor M1 (Homo sapiens, UniProt P11229); test: Displacement of [3H]N-methylscopolamine from human recombinant muscarinic M1 receptor expressed in CHOK1 cells after 2 hrs; type: cell-based, CHO-K1
Chain of Muscarinic acetylcholine receptor M1 (P11229 whole entry): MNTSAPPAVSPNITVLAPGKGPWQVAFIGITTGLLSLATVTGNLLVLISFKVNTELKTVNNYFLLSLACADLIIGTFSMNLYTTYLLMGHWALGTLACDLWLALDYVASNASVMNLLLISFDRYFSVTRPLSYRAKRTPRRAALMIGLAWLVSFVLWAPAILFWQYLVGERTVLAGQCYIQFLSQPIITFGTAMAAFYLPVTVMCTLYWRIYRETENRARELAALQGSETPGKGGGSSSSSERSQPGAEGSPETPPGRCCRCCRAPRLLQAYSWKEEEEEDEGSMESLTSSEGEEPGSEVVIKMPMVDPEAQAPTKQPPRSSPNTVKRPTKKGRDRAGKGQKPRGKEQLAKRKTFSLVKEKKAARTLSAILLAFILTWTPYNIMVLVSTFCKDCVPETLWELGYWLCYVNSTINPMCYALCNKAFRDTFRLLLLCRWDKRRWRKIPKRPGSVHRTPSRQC

[42] = target: Muscarinic acetylcholine receptor M1 (Homo sapiens) (UniProt P11229); test: Displacement of [3H]N-methylscopolamine from human recombinant muscarinic M1 receptor expressed in CHOK1 cells at 10 uM after 2 hrs relative to control; type: cell-based; conditions: CHO-K1
Chain of Muscarinic acetylcholine receptor M1 (Homo sapiens) (P11229 whole entry): as above

[43] = target: Prostaglandin E2 receptor EP4 subtype (Homo sapiens) (UniProt P35408); test: Displacement of [3H]PGE2 from human recombinant prostanoid EP4 receptor in CHEM1 cells at 10 uM after 2 hrs relative to control; type: cell-based

Chain of Adenosine receptor A1 (Homo sapiens) (P30542 whole entry): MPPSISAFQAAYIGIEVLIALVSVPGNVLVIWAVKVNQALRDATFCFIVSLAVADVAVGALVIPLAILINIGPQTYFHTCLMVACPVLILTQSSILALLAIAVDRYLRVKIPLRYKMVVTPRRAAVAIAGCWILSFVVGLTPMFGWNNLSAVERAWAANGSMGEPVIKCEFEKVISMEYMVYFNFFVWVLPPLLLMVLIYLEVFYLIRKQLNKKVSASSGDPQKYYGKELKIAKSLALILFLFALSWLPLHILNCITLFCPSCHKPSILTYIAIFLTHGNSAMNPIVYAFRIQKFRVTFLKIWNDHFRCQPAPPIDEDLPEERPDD
Chain of B2 bradykinin receptor (Homo sapiens) (P30411 whole entry): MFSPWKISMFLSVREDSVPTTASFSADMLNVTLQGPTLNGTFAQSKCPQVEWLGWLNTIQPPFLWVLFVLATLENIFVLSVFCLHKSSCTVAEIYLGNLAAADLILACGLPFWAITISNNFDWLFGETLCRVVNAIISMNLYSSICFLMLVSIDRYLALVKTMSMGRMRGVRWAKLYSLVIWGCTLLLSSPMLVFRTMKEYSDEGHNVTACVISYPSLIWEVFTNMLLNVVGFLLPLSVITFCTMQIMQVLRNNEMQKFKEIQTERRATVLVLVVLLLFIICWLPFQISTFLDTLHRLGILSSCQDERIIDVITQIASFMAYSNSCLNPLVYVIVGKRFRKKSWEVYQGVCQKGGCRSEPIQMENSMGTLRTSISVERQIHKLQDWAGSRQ

## C[C@H](Cc1ccccc1)Nc1ncnc2c1ncn2[C@@H]1O[C@H](CO)[C@@H](O)[C@H]1O
[1]
  inhibition: 25%

## Clc1ccc(C2CC3CCC2N3)cn1 (configuration not stated)
IMR-32
  inhibition: 12%

## H-RPPGFSPFR-OH
[2]
  inhibition: 4%

## N[C@@H](CCC(=O)O)C(=O)O
[3]
  inhibition: 10%
Rattus norvegicus [4]
  inhibition: 0%

## CCc1ccc(/C=C/C(=O)NC2=NCCS2)cc1
[5]
  remaining at 5 h: 97.1%
[6]
  EC50: 2000 nM
[7]
  EC50: 64 µM
[8]
  remaining at 48 h: 82%
[9]
  remaining at 48 h: > 75%
[10]
  remaining at 48 h: 75%
[11]
  solubility at 24 h, 100 µM: 11.5 µM (≈ 2.99 µg/mL)
[12]
  selectivity ratio: 32
[13]
  fraction unbound: 0.034

## CCOC(=O)C1=C(C)NC(C)=C(C(=O)OC)C1c1cccc([N+](=O)[O-])c1 (configuration not stated) [NITRENDIPINE]
Rattus norvegicus [14]
  inhibition: -6%
[15]
  IC50: 0.72 nM
  Ki: 0.46 nM

## C/N=C(/NC#N)NCCSCc1csc(NC(=N)N)n1
[16]
  inhibition: 11%

## CCCCCCCCCCCCCCCCOC[C@H](COP(=O)([O-])OCC[N+](C)(C)C)OC(C)=O
[17]
  inhibition: 6%

## c1ccc2c(c1)OCC(C1=NCCN1)O2 (configuration not stated) [IDAZOXAN]
Rattus norvegicus [18]
  inhibition: 11%
[19]
  IC50: 12 nM
  Ki: 8 nM

## Oc1ccc2c3c1O[C@H]1c4[nH]c5ccccc5c4C[C@@]4(O)[C@@H](C2)N(CC2CC2)CC[C@]314
[20]
  inhibition: 18%

## C[C@@]12NC(Cc3ccccc31)c1ccccc12
[21]
  inhibition: 1%

## C[C@H](NC[C@H](O)CP(=O)(O)CC1CCCCC1)c1ccc(Cl)c(Cl)c1
[22]
  inhibition: 1%

## C[C@@H](N)Cc1c[nH]cn1
[23]
  inhibition: 6%

## COc1ccc(C2CNC(=O)C2)cc1OC1CCCC1 (configuration not stated)
Rattus norvegicus [24]
  inhibition: 16%

## CCCCCCCCCCCCCC(=O)O[C@@H]1[C@@H](C)[C@@]2(O)[C@@H](C=C(CO)C[C@]3(O)C(=O)C(C)=C[C@@H]23)[C@@H]2C(C)(C)[C@]12OC(C)=O [PHORBOL MYRISTATE ACETATE]
Mus musculus
  inhibition: -1%
[25]
  IC50: 0.79 nM
  Ki: 0.59 nM

## O=C(O)/C(=C/c1c(C(=O)O)[nH]c2cc(Cl)cc(Cl)c12)c1ccccc1
[26]
  inhibition: -3%
Glutamate NMDA receptor
  IC50: 22 nM
  Ki: 21 nM

## O=C(CCCN1CCC2(CC1)C(=O)NCN2c1ccccc1)c1ccc(F)cc1
[27]
  inhibition: -3%
[28]
  inhibition: -3%

## COc1ccc2[nH]cc(CCNC(C)=O)c2c1
CHO-K1
  inhibition: 11%

## NCCCC[C@H](N)C(=O)N[C@@H](CCCN=C(N)N)C(=O)N1CCC[C@H]1C(=O)N1CCC[C@H]1C(=O)NCC(=O)N[C@@H](Cc1ccccc1)C(=O)N[C@@H](CO)C(=O)N1CCC[C@H]1C(=O)N[C@@H](Cc1ccccc1)C(=O)O
[29]
  inhibition: 8%

## H-PAEDLARYYSALRHYITRRQRY-NH2
[30]
  IC50: 0.21 nM
  Ki: 0.12 nM
[31]
  inhibition: 6%

## CNC(=O)[C@H]1O[C@@H](n2cnc3c(NCc4cccc(I)c4)ncnc32)[C@H](O)[C@@H]1O
[32]
  inhibition: 22%

## CCCCC/C=C\C\C=C/C=C/C=C/[C@@H](SC[C@H](N)C(=O)NCC(=O)O)[C@@H](O)CCCC(=O)O
[33]
  inhibition: -10%

## C[C@@H](NC(=O)[C@@H](N)Cc1ccc(O)cc1)C(=O)NCC(=O)N(C)[C@@H](Cc1ccccc1)C(=O)NCCO
[34]
  inhibition: 4%

## COc1ccc(Cl)cc1C(=O)NCCc1ccc(S(=O)(=O)NC(=O)NC2CCCCC2)cc1 [GLYBURIDE]
HIT-T15
  inhibition: 10%
[35]
  IC50: 5.7 nM
  Ki: 0.65 nM

## Nc1ncnc2c1ncn2[C@@H]1O[C@H](COP(=O)(O)CP(=O)(O)OP(=O)(O)O)[C@@H](O)[C@H]1O [DIPHOSPHOMETHYLPHOSPHONIC ACID ADENOSYL ESTER]
[36]
  IC50: 82 nM
  Ki: 18 nM
Oryctolagus cuniculus
  inhibition: 3%

## C[C@@H](O)[C@@H]1NC(=O)[C@H](Cc2ccc(O)cc2)NC(=O)[C@@H]2C[C@@H](O)CN2C(=O)[C@H](CC(N)=O)NC(=O)[C@@H]2CSSC[C@@H]3NC(=O)[C@H](CO)NC(=O)[C@H](CO)NC(=O)CNC(=O)[C@@H]4C[C@@H](O)CN4C(=O)[C@H](CO)NC(=O)[C@H](CCCCN)NC(=O)[C@@H](N)CSSC[C@H](NC(=O)[C@H](CSSC[C@@H](C(=O)N[C@@H](Cc4ccc(O)cc4)C(N)=O)NC(=O)[C@H](CCCNC(=N)N)NC(=O)[C@H](CCCCN)NC1=O)NC(=O)[C@H](CC(N)=O)NC(=O)[C@H](Cc1ccc(O)cc1)NC(=O)[C@H](CO)NC(=O)[C@H]([C@@H](C)O)NC(=O)[C@@H]1C[C@@H](O)CN1C(=O)[C@H](CO)NC3=O)C(=O)N[C@@H](CCCNC(=N)N)C(=O)N[C@@H](CO)C(=O)N2
Rattus norvegicus [37]
  inhibition: 14%
[38]
  IC50: 0.034 nM
  Ki: 0.028 nM

## C[N+]1(C)CCC(OC(=O)C(c2ccccc2)c2ccccc2)CC1 [4-DAMP]
[39]
  inhibition: -2%
[40]
  inhibition: -4%
[41]
  IC50: 4.5 nM
[42]
  inhibition: 5%

## CCCCC[C@H](O)/C=C/[C@H]1[C@H](O)CC(=O)[C@@H]1C/C=C\CCCC(=O)O
[43]
  inhibition: 5%
